{"source": "patent US20020091086A1", "about": "“Peptides that block viral infectivity and methods of use thereof” (priority 1999, published 2002)", "key": {"[1]": {"target": "HIV-1 specific protease (Human immunodeficiency virus type 1 group M subtype B, UniProt P04585)", "test": "activity of the HIV-1 specific protease", "type": "biochemical"}, "[2]": {"test": "in vivo uptake, distribution and elimination of 14C GPG-NH2 in rats", "procedure": "Further, the in vivo uptake of small peptides was analyzed in rats. Rats were fed ^14C GPG-NH2 and, after various time points, blood, urine, and tissue samples were collected from the animals. Samples of rat urine taken eight hours after feeding and rat plasma taken 30 minutes, two hours, and eight hours after feeding were separated on a TLC plate, as shown in FIG. 7 (designated urine8, rp0.5, rp2, and rp^8, accordingly). All the tissues were kept in −20° C. after necropsy before any assay was performed. […] of the tissue samples were collected from three different locations of each organ analyzed and the organ tissue was subsequently dissolved in 250 μl of tissue solublizer (OptiSolv, LKB-Wallac) at 45° C. for four to six hours. The homogenized tissue solutions were decolorized by the addition of 50 μl of 30% H2O2 and 100 μl of isopropanol before 3 ml of 0.05M HCl acidified scintillation cocktail (Luma Gel, Lumac/3M) was added. The radioactivity was determined with a beta scintillation counter (LKB-Wallac 1218 Rack Beta). The free/unbound GPG-NH2 in the plasma was collected by precipitation with one part of plasma and two parts of ethanol followed by incubation at −70° C. for one hour and centrifugation at 20,000×g for 15 min at 4° C. Blood cell samples were diluted with PBS (in the ratio of 2 parts of blood cells to 1 part of PBS) before 10 μl of the mixture was sampled and analyzed as the tissue samples. Five to 20 μl of plasma and urine samples were directly mixed with 3 ml of Ready Safe (Beckman) fluid before quantification. The values are expressed in nCi.\nThe calculation of the maximum uptake was determined as follows. The total feeding was 800 μCi/kg rat body weight (160 μCi in total per animal). On the assumption that the GPG-NH2 and its metabolities were evenly distributed in the body, the GPG-NH2 present in tissues would be the average counts/g from different tissues from the total number of animals studied divided by the total number of animals and multiplied by the body weight and the factor 0.9. This factor is derived to omit the blood volume since an estimate of blood volume is roughly 10% of the average body weight. For example (from the data of animals 1-5), if the total body weight for five rats was […] and the radioactivity detected from various tissues was (35+466+495+366+331) or 1,693 nCi and the radioactivity detected from blood was (93+130) or 223 nCi and the radioactivity detected in urine was 4, 015 nCi, the maximal intake of the small peptide can be calculated as: […]\nIn FIG. 9, the distribution of radioactivity between blood cells, plasma protein bound, as well as, non protein bound (free) plasma radioactivity is shown. The elimination of radioactivity from the plasma fraction is depicted in FIG. 10. […] Protein bound radioactivity was assayed after precipitation with two parts of 99.5% ethanol. From the uptake and distribution data and the TLC data above, the minimal uptake of intact GPG-NH2 recovered from the plasma was calculated and, in one hour after feeding of the rats, at least 1% of fed GPG-NH2 could be recovered as protein free GPG-NH2 in the plasma."}, "[3]": {"test": "radioactivity associated with rat plasma proteins, SDS/PAGE", "type": "in vivo, rats", "conditions": "60 minutes after feeding", "procedure": "The proteins from whole plasma were also analyzed by column chromatography and fractionated and crude protein were separated by sodium dodecyl sulfate polyacrylamide gel (10%) electrophoresis (SDS/PAGE). Rat plasma samples were partially purified with size exclusion ([…], Phamacia) chromatography (0.4×6 cm), in a buffer of 10 mM Tris-HCl pH 8.3 and 50 mM KCl. Eluate was then separated by anionic exchange chromatography by using an increasing stepwise gradient of NaCl in a buffer of 10 mM Tris-HCl pH8.3 (Sepharose CL-6B DEAE, 0.4×6 cm). The eluate was monitored and pooled according to the radioactivity (Ready Safe, Beckman; LKB 1218, Sweden). The protein fractions with strong signal were separated on a 10% SDS-PAGE and were subsequently blotted onto PVDF (polyvinylidene difluoride, BioRad) membrane before being subjected to Edman N-terminal amino acid sequencing (Applied Biosystems Procise Sequencer, USA).\nThe proteins marked B1-B4 were sequenced and determined to be alpha-1 antitrypsin (Bi), pentaxin (B-2), C-reactive protein (B-3), and B-4 could not be identified. These proteins are all synthesized in the liver. One interpretation is that hydrolyzed GPG-NH2 was reutilized in the liver protein synthesis. […]"}, "[4]": {"conditions": "rats fed 14C GPG-NH2 800 μCi/kg, sacrificed after 4 hours, avg of animals 1-5"}, "[5]": {"conditions": "rats fed 14C GPG-NH2 800 μCi/kg, sacrificed after 8 hours, avg of animals 6-10"}, "[6]": {"conditions": "rats fed 14C GPG-NH2 800 μCi/kg, sacrificed after 8 hours, individual animals 6-10"}}, "note": "Values joined by “and” are separate entries in the source; they are usually repeats but may differ in a detail not shown here. Equal values may be shown once. Peptide text beside a SMILES is read from it."}
{"smiles": "NCC(=O)N1CCC[C@H]1C(=O)NCC(N)=O", "note": "[GPG-NH2, glycyl-prolyl-glycine amide] (H-Gly-Pro-Gly-NH2)", "values": [{"measurement": "activity of the HIV-1 specific protease", "setting": "[1]", "result": "not to affect"}, {"measurement": "radioactivity in urine (used for uptake calculation)", "setting": "[2]; animals 1-5, 4 hours", "result": "4,015 nCi"}, {"measurement": "radioactivity present in blood (calculated)", "setting": "[2]; animals 1-5, 4 hours, body weight 207 g, factor 0.1", "result": "blood (93 + 130) * 207 * 0.1 = 4,642 nCi"}, {"measurement": "radioactivity present in tissue (whole body, calculated)", "setting": "[2]; animals 1-5, 4 hours, body weight 207 g, factor 0.9", "result": "(35 + 466 + 495 + 366 + 331)/5 * 207 * 0.9 = 63,240 nCi"}, {"measurement": "change of radioactivity in the urine", "setting": "[2]; between hours 4 and 8", "result": "double"}, {"measurement": "portion of urine radioactivity that was intact GPG-NH2", "setting": "[2]; electrospray mass spectrometry of TLC spot", "result": "only a small portion"}, {"measurement": "fed GPG-NH2 recovered as protein free GPG-NH2 in the plasma", "setting": "[2]; one hour after feeding of the rats", "result": "at least 1%"}, {"measurement": "maximal uptake", "setting": "[2]; oral feeding 800 μCi/kg, animals 1-5, 4 hours", "result": "(63.24 + 4.642 + 4.015)/800 * 0.207 = 0.4342, or 43% maximal"}, {"measurement": "radioactivity in Blood cells, avg", "setting": "[2]; [4]", "result": "93 nCi/ml or g tissue"}, {"measurement": "radioactivity in Brain, avg", "setting": "[2]; [4]", "result": "35 nCi/ml or g tissue"}, {"measurement": "radioactivity in Kidneys, avg", "setting": "[2]; [4]", "result": "466 nCi/ml or g tissue"}, {"measurement": "radioactivity in Liver, avg", "setting": "[2]; [4]", "result": "495 nCi/ml or g tissue"}, {"measurement": "radioactivity in Plasma, avg", "setting": "[2]; [4]", "result": "130 nCi/ml or g tissue"}, {"measurement": "radioactivity in Spleen, avg", "setting": "[2]; [4]", "result": "366 nCi/ml or g tissue"}, {"measurement": "radioactivity in Thymus, avg", "setting": "[2]; [4]", "result": "331 nCi/ml or g tissue"}, {"measurement": "radioactivity in Total urine, avg", "setting": "[2]; [4]", "result": "4,015 nCi/ml or g tissue"}, {"measurement": "radioactivity in Urine, avg", "setting": "[2]; [4]", "result": "5,660 nCi/ml or g tissue"}, {"measurement": "radioactivity in Blood cells, avg", "setting": "[2]; [5]", "result": 78, "unit": "nCi"}, {"measurement": "radioactivity in Brain, avg", "setting": "[2]; [5]", "result": 30, "unit": "nCi"}, {"measurement": "radioactivity in Kidneys, avg", "setting": "[2]; [5]", "result": 415, "unit": "nCi"}, {"measurement": "radioactivity in Liver, avg", "setting": "[2]; [5]", "result": 494, "unit": "nCi"}, {"measurement": "radioactivity in Plasma, avg", "setting": "[2]; [5]", "result": 135, "unit": "nCi"}, {"measurement": "radioactivity in Spleen, avg", "setting": "[2]; [5]", "result": 293, "unit": "nCi"}, {"measurement": "radioactivity in Thymus, avg", "setting": "[2]; [5]", "result": 334, "unit": "nCi"}, {"measurement": "radioactivity in Total urine, avg", "setting": "[2]; [5]", "result": "8,426 nCi"}, {"measurement": "radioactivity in Urine, avg", "setting": "[2]; [5]", "result": "3,525 nCi"}, {"measurement": "radioactivity in Blood cells", "setting": "[2]; [6]", "result": "51 nCi and 72 nCi and 87 nCi and 71 nCi and 108 nCi"}, {"measurement": "radioactivity in Brain", "setting": "[2]; [6]", "result": "43 nCi and 27 nCi and 28 nCi and 25 nCi and 29 nCi"}, {"measurement": "radioactivity in Kidneys", "setting": "[2]; [6]", "result": "255 nCi and 488 nCi and 461 nCi and 401 nCi and 468 nCi"}, {"measurement": "radioactivity in Liver", "setting": "[2]; [6]", "result": "537 nCi and 419 nCi and 478 nCi and 458 nCi and 578 nCi"}, {"measurement": "radioactivity in Plasma", "setting": "[2]; [6]", "result": "138 nCi and 123 nCi and 135 nCi and 129 nCi and 148 nCi"}, {"measurement": "radioactivity in Spleen", "setting": "[2]; [6]", "result": "307 nCi and 281 nCi and 257 nCi and 336 nCi and 285 nCi"}, {"measurement": "radioactivity in Thymus", "setting": "[2]; [6]", "result": "340 nCi and 350 nCi and 323 nCi and 349 nCi and 311 nCi"}, {"measurement": "radioactivity in Total urine", "setting": "[2]; [6]", "result": "6,463 nCi and 6,653 nCi and 11,173 nCi and 10,227 nCi and 7,613 nCi"}, {"measurement": "radioactivity in Urine", "setting": "[2]; [6]", "result": "2,992 nCi and 5,040 nCi and 3,121 nCi and 4,297 nCi and 2,175 nCi"}, {"measurement": "relative distribution of retained/immobilized GPG-NH2 and its metabolites in sampled tissues", "setting": "[2]; rats, oral", "result": "highest in the liver followed by the kidney, followed by the spleen, followed by the thymus, followed by the brain"}, {"measurement": "radioactivity covalently associated with plasma proteins", "setting": "[3]", "result": "little radioactivity was observed to be covalently associated with proteins"}]}
